species: Felis catus; test: Compound was evaluated for positive inotropic activity in vitro on cat papillary muscle, expressed as the percent increase over base-line contractility at 1 x 10 e-4 M; type: functional

Row | SMILES | Increase
1 | CN(C)C1CCc2[nH]c3cc(O)ccc3c2C1 (stereo not given) | 50%
2 | Nc1cc(-c2ccncc2)c[nH]c1=O [INAMRINONE] | 50%
3 | CN(C)C1CCc2[nH]c3c(ccc4ncccc43)c2C1 (stereo not given) | 80%
4 | CN(C)C1CCc2c(c3ccc4ncccc4c3n2C)C1 (stereo not given) | 69%
5 | CN(C)C1CCc2[nH]c3c(ccc4[nH]ccc43)c2C1 (stereo not given) | 15%
